Experimental data from US20230055237A1, “COMPOUNDS AND METHODS FOR THE TREATMENT OF CYSTIC FIBROSIS” (Flatley Discovery Lab, LLC, priority 2019, published 2023).

Molecular target: T1, CFTR (Homo sapiens, UniProt P13569, DEL508-508)
T1 construct: Primary CF airway epithelial cells were obtained from the UNC Cystic Fibrosis Tissue Procurement and Cell Culture Core; host or cells: primary CF airway epithelial cells, differentiated at the air-liquid interface
Assay: Equivalent current assay in primary CF airway epithelial cells (NAUC, combination with 1st site corrector FDL169 or VX-809)
Assay type: cell-based
Conditions: 37° C., 24 h

[1] = test compound 1 μM in combination with 1st site corrector VX-809 (3 μM)
[2] = test compound 3 μM in combination with 1st site corrector VX-809 (3 μM)
[3] = test compound 10 μM in combination with 1st site corrector VX-809 (3 μM)
[4] = test compound 1 μM in combination with 1st site corrector FDL169 (3 μM)
[5] = test compound 3 μM in combination with 1st site corrector FDL169 (3 μM)
[6] = test compound 10 μM in combination with 1st site corrector FDL169 (3 μM)

T1 sequence (P13569 with tags, fused parts or gaps DEL508-508): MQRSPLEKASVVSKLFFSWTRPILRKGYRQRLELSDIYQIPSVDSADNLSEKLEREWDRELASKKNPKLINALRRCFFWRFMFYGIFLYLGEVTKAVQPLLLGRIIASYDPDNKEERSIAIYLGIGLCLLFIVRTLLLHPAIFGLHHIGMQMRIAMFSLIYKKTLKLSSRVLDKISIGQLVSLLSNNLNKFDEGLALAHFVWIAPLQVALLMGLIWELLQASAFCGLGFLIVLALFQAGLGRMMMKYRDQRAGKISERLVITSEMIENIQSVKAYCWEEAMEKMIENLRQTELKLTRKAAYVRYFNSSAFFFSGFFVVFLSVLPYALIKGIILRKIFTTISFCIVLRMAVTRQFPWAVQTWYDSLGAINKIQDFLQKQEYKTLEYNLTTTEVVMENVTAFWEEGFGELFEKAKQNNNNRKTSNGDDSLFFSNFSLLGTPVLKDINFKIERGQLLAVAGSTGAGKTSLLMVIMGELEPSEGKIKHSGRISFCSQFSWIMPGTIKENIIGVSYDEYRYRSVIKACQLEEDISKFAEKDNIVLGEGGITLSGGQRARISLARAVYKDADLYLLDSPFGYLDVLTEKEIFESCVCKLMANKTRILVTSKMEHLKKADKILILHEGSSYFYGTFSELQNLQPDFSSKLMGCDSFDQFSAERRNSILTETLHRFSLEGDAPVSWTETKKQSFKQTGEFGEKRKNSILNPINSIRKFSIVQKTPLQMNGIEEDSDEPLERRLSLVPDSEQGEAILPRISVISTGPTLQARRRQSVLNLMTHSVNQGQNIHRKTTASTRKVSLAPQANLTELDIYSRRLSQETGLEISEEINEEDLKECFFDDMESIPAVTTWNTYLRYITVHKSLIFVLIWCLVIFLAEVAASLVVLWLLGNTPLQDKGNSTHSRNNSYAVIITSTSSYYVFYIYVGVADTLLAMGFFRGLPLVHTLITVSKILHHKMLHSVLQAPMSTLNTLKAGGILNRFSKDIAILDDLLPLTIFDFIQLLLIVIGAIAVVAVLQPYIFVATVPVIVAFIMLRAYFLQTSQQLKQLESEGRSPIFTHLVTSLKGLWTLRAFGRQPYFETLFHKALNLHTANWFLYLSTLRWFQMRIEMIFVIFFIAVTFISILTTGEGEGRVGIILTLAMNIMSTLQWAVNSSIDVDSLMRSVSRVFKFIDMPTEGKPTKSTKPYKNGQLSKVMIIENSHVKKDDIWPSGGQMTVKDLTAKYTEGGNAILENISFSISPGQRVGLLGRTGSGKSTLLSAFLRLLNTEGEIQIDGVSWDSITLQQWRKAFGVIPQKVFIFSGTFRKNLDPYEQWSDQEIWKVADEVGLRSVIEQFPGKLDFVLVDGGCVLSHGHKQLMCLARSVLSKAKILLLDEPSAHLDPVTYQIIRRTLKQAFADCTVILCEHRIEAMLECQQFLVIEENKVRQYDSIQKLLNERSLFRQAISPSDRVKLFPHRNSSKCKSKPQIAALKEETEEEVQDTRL

SMILES	Nauc @ 1 μM [1]	Nauc @ 3 μM [2]	Nauc @ 10 μM [3]	Nauc @ 1 μM [4]	Nauc @ 3 μM [5]	Nauc @ 10 μM [6]
O=C(Nc1cc(Cl)cc(Cl)c1)C1C2CCCN2C2(C(=O)Nc3c(Cl)cc(Cl)cc32)C1C(=O)NO (single isomer, unassigned) [Example 234a, 5,7-dichloro-N1′-(3,5-dichlorophenyl)-N2′-hydroxy-2-oxo-1′,2′,5′,6′,7′,7a′-hexahydrospiro[indoline-3,3′-pyrrolizine]-1,2′-dicarboxamide]	++ (NAUC “++” refers to an observed NAUC 170-140% of positive control)	++ (NAUC “++” refers to an observed NAUC 170-140% of positive control)	++ (NAUC “++” refers to an observed NAUC 170-140% of positive control)			
CCN(C(=O)[C@H]1[C@H]2CC(F)(F)CN2[C@]2(C(=O)Nc3c(Cl)cc(Cl)cc32)[C@H]1C(=O)O)c1cc(Cl)cc(Cl)c1 [Example 171]				+++ (NAUC “+++” refers to an observed NAUC>170% of positive control)	+++ (NAUC “+++” refers to an observed NAUC>170% of positive control)	+++ (NAUC “+++” refers to an observed NAUC>170% of positive control)
O=C(Nc1cc(Cl)cc(Cl)c1)C1CN(CC(F)(F)F)C2(C(=O)Nc3c(Cl)cc(Cl)cc32)C1C(=O)O (stereo not drawn) [Example 79b]	+ (NAUC “+” refers to an observed NAUC <140% of positive control)	+ (NAUC “+” refers to an observed NAUC <140% of positive control)	++ (NAUC “++” refers to an observed NAUC 170-140% of positive control)			
CC(C)(CN(C(=O)[C@H]1[C@H]2CC(F)(F)CN2[C@]2(C(=O)Nc3c(Cl)cc(Cl)cc32)[C@H]1C(=O)O)c1cc(Cl)cc(Cl)c1)C(F)(F)F [Example 154]				+++ (NAUC “+++” refers to an observed NAUC>170% of positive control)	+++ (NAUC “+++” refers to an observed NAUC>170% of positive control)	+ (NAUC “+” refers to an observed NAUC <140% of positive control)
O=C(Nc1cc(Cl)cc(Cl)c1)C1CN(CC(F)(F)F)C2(C(=O)Nc3c(Cl)cc(Cl)cc32)C1C(=O)O (stereo not drawn) [Example 41]		+ (NAUC “+” refers to an observed NAUC <140% of positive control)	++ (NAUC “++” refers to an observed NAUC 170-140% of positive control)			
Cc1nn(-c2ccccc2)cc1N(CC1CC1)C(=O)[C@H]1[C@H]2CC(F)(F)CN2[C@]2(C(=O)Nc3c(Cl)cc(Cl)cc32)[C@H]1C(=O)O [Example 167]				+ (NAUC “+” refers to an observed NAUC <140% of positive control)	+ (NAUC “+” refers to an observed NAUC <140% of positive control)	
O=C(Nc1cc(C(F)(F)F)ccn1)C1C2CC(F)(F)CN2C2(C(=O)Nc3c(Cl)cc(Cl)cc32)C1C(=O)O (stereo not drawn) [Example 11]		+++ (NAUC “+++” refers to an observed NAUC>170% of positive control)	++ (NAUC “++” refers to an observed NAUC 170-140% of positive control)			
O=C(O)[C@H]1[C@@H](C(=O)N(c2cc(Cl)cc(Cl)c2)C2CC(O)C2)[C@H]2CC(F)(F)CN2[C@]12C(=O)Nc1c(Cl)cc(Cl)cc12 (stereo partly drawn) [Example 158]				+ (NAUC “+” refers to an observed NAUC <140% of positive control)	+ (NAUC “+” refers to an observed NAUC <140% of positive control)	
O=C(Nc1cc(Cl)cc(Cl)c1)C1C(C(F)(F)c2ccc(C(F)(F)F)cc2)NC2(C(=O)Nc3c(Cl)cc(Cl)cc32)C1C(=O)O (stereo not drawn) [Example 73.b]			+ (NAUC “+” refers to an observed NAUC <140% of positive control)			
CCC(=O)N1C(C(C)C)C(C(=O)Nc2cc(Cl)cc(Cl)c2)C(C(=O)O)C12C(=O)Nc1c(Cl)cc(Cl)cc12 (stereo not drawn) [Example 26]		++ (NAUC “++” refers to an observed NAUC 170-140% of positive control)	+++ (NAUC “+++” refers to an observed NAUC>170% of positive control)			
O=C(Nc1cc(Cl)cc(Cl)c1)C1C(C(F)(F)c2ccccn2)NC2(C(=O)Nc3c(Cl)cc(Cl)cc32)C1C(=O)O (stereo not drawn) [Example 72.c]			++ (NAUC “++” refers to an observed NAUC 170-140% of positive control)			
